{"source": "patent US20210393932A1", "about": "“DERMAL PATCHES AND GLASS SWABS FOR APPLICATION OF TOPICAL IMMUNOSENSITIZERS” (Squarex, LLC, priority 2020, published 2021)", "key": {"[1]": {"experiment": "HPLC analysis of test article vials and patch controls in air (guinea pig study)", "type": "physicochemical", "method": "Squaric acid dibutyl ester (SADBE) at 2% (w/v) concentration in dimethylsulfoxide (DMSO) was added to a skin patch for dermal dosing of SADBE to test for a delayed-type hypersensitivity response or other skin irritation. In the laboratories of Squarex HPLC analysis was conducted to analyze for SADBE content, for analysis of the dose formulation prepared by APS and to determine stability of the test article in the dermal patches during the application time and to test for residual SADBE in the dermal patches after 12 hours applied to the animals.\nThe skin patches consisted of a polymer backing layer similar to 3M 9916 polyester nonwoven backing layer with adhesive, 3M 9733 polyester film laminate barrier layer, and Precision Fabrics Group 0700-00010 polyester gauze layer. The gauze was heat sealed to the barrier layer. The gauze patch area was 1.53 cm^2.\nThe tubes of DMSO with patches were transported to the Squarex laboratory, shaken at 200 rpm for 1 hour or more, and then the DMSO from each tube was placed in an injection vial and analyzed for SADBE content by HPLC on a C18 column with the program SADBE3-50 ul. SADBE elutes in this program at about 24.0 minutes and absorbs at 255 nm, so the area of the 24.0 min peak at 255 nm was used to quantify SADBE. The SADBE degradation product squaric acid monobutyl ester (SAMBE) was also quantified by 255 nm area under the curve at the elution time of 12.7 minutes.\nThe test article vials of 2%, 6%, and 18% SADBE dissolved in DMSO complied with specifications and had the predicted concentrations of SADBE at 24 hours after preparation.\nThe results indicated the SADBE was stable for more than 12 hours in the patches when not exposed to animal skin. There was no apparent loss of SADBE or conversion of SADBE to SAMBE."}, "[2]": {"test_system": "herpes labialis outbreaks", "experiment": "Placebo-controlled Phase 1 clinical trial of SADBE in subjects with frequent herpes labialis outbreaks", "type": "in vivo, human", "method": "Methods This exploratory, double-blind, randomized placebo-controlled study was conducted between November 2013 and September 2015 at Massachusetts General Hospital. Healthy adults, ages 18 to 69 years, who self-reported having 6 or more episodes of herpes labialis in the previous 12 months received a topical sensitization dose on the arm at the initial visit, and then received a topical treatment dose applied to a lesion during the first 2 herpes labialis episodes occurring at least 2 weeks after the sensitization dose. Participants were randomized 1:1:1 to receive dimethyl sulfoxide alone (placebo), 2.0% SADBE sensitization and 0.5% SADBE treatment doses, or 2.0% SADBE sensitization, 0.2% SADBE treatment doses. The study was approved by Partners Human Research Committee institutional review board, and all participants provided their written informed consent (clinicaltrials.gov identification No. NCT01971385). Results. Fifty-four patients were enrolled into the study; 43 patients had at least 1 form of contact (either in person or by phone) with research staff following the sensitizing dose and were included in the efficacy data analysis. The data analyzed involves 9 males and 34 females.\nOne planned primary end point was days to the next herpes labialis outbreak after the last treatment dose. […] Thus, we analyzed time to next outbreak after the sensitization dose. Data from patients who never experienced a first outbreak following sensitization were censored on the last available follow-up date and Kaplan-Meier time-to-event curves were estimated and graphed (FIG. 3). The median time to event for the placebo group was 40 days versus more than 122 days for the 2.0% SADBE group, which difference was highly significant (P=0.009)."}, "[3]": {"experiment": "Toxicity evaluation (body weight, food consumption, necropsy, histopathology) in Gottingen mini-pig", "type": "in vivo, Gottingen miniswine", "excerpt": "The purpose of this nonGLP study was to evaluate the effect of various concentrations of SADBE delivered via dermal patch, for dose site irritation and toxicity endpoints such as body weights, group food consumption, clinical observation, pre-termination clinical pathology, gross and histopathology.\nA total of 6 Gottingen miniswine (3 female and 3 male) was used in this nonGLP study. Prior to dosing, the baseline body weights, group food consumption, and Draize scoring (see tables 1 and 2) for erythema and eschar formation and edema at the future dose site were recorded. A dermal patch (1 patch/animal) loaded with 20 microliters of 2, 6, or 18% SADBE drug solution was applied to animals, and left in place for ˜12 hours. Following the ˜12 hour dosing period, patch sites was assessed by Draize scoring as in Example 5, 5×/week for 21 days. […] After the 25 day assessment period, the animals were re-challenged and a second dosing and assessment phase performed for 30 days. At the end of the survival period, animals were humanely euthanized and a complete necropsy was performed. The test article vials used to prepare patches and mini-pig exposed patches were collected after application to determine SADBE content and SADBE degradation product squaric acid monobutyl ester (SAMBE) using HPLC at Squarex's Laboratory.\nDose site was explanted, fixed, and embedded. Dose sites were examined histologically and an evaluation of cell type presence and tissue response conducted."}, "[4]": {"details": "2% patch control, 20 ul, >12 hours in air"}, "[5]": {"details": "2% vial, SADBE in DMSO, 24 hours after preparation"}, "[6]": {"details": "6% patch control, 20 ul, >12 hours in air"}, "[7]": {"details": "6% vial, SADBE in DMSO, 24 hours after preparation"}, "[8]": {"details": "18% patch control, 20 ul, >12 hours in air"}, "[9]": {"details": "18% vial, SADBE in DMSO, 24 hours after preparation"}, "[10]": {"details": "any dose (2%, 6%, 18% SADBE patch)"}}, "data": [{"smiles": "CCCCOc1c(OCCCC)c(=O)c1=O", "note": "[SADBE, squaric acid dibutyl ester]", "values": [{"measurement": "% of expected SADBE", "setting": "[1]; [4]", "result": 106.0, "unit": "%"}, {"measurement": "SAMBE as percent of SADBE", "setting": "[1]; [4]", "result": 0.95, "unit": "%"}, {"measurement": "% of expected SADBE", "setting": "[1]; [5]", "result": 97.5, "unit": "%"}, {"measurement": "SAMBE as percent of SADBE", "setting": "[1]; [5]", "result": 0.84, "unit": "%"}, {"measurement": "% of expected SADBE", "setting": "[1]; [6]", "result": 94.5, "unit": "%"}, {"measurement": "SAMBE as percent of SADBE", "setting": "[1]; [6]", "result": 1.05, "unit": "%"}, {"measurement": "% of expected SADBE", "setting": "[1]; [7]", "result": 102.9, "unit": "%"}, {"measurement": "SAMBE as percent of SADBE", "setting": "[1]; [7]", "result": 0.83, "unit": "%"}, {"measurement": "% of expected SADBE", "setting": "[1]; [8]", "result": 100.3, "unit": "%"}, {"measurement": "SAMBE as percent of SADBE", "setting": "[1]; [8]", "result": 1.01, "unit": "%"}, {"measurement": "% of expected SADBE", "setting": "[1]; [9]", "result": 97.7, "unit": "%"}, {"measurement": "SAMBE as percent of SADBE", "setting": "[1]; [9]", "result": 0.91, "unit": "%"}, {"measurement": "time SADBE was stable in the patches", "setting": "[1]; patches not exposed to animal skin, no apparent loss or conversion to SAMBE", "result": "more than 12 hours"}, {"measurement": "median time to next herpes labialis outbreak after the sensitization dose", "setting": "[2]; 2.0% SADBE sensitization dose on arm, Kaplan-Meier, placebo 40 days, P=0.009", "result": "more than 122 days"}, {"measurement": "adverse event: itching and redness at the sensitization site", "setting": "[2]; 2.0% SADBE, placebo 2 patients", "result": 13, "unit": "patients"}, {"measurement": "adverse event: autosensitization dermatitis", "setting": "[2]; exposed to the SADBE sensitization dose for 24 hours", "result": 1, "unit": "patient"}, {"measurement": "tolerability", "setting": "[2]; overall, patients", "result": "well tolerated"}, {"measurement": "patients who did not experience another outbreak after sensitization", "setting": "[2]; patients who received 2.0% SADBE for sensitization", "result": "16 of 28"}, {"measurement": "histopathology of treated skin sites: inflammatory infiltrates in the dermis", "setting": "[3]; 2% & 6% SADBE", "result": "multifocal rare to mild infiltrates of inflammatory cells"}, {"measurement": "histopathology of treated skin sites: inflammatory infiltrates in the dermis", "setting": "[3]; 18% SADBE", "result": "multifocal mild to heavy infiltrates of inflammatory cells"}, {"measurement": "histopathology: necrosis and fatty infiltration", "setting": "[3]; all SADBE treated sites", "result": "minimal multifocal necrosis and fatty infiltration were observed"}, {"measurement": "Cervical and Inguinal lymph node sections", "setting": "[3]; all animals, all doses", "result": "within normal limits"}, {"measurement": "gross necropsy", "setting": "[3]; all doses", "result": "No abnormalities were noted"}, {"measurement": "histopathology: parakeratosis", "setting": "[3]; all sections examined", "result": "mild to moderate parakeratosis"}, {"measurement": "effect on body weight", "setting": "[3]; [10]", "result": "no significant effect"}, {"measurement": "effect on food consumption", "setting": "[3]; [10]", "result": "no significant effect"}, {"measurement": "histopathology: neovascularization and fibrosis", "setting": "[3]; any tissue sections examined", "result": "Neovascularization and fibrosis was not noted"}]}]}
